From patent publication US11974990B2, “TXNIP-TRX complex inhibitors and methods of using the same” (City of Hope, priority 2018, dated 2024)
“Also recorded” adds a separate entry of the source.

Legend:
Type in all cases: cell-based
[1] = target: T1, TXNIP-TRX complex (Homo sapiens, UniProt Q9H3M7); assay: Co-IP of TXNIP with TRX in THP1 monocytes treated with compounds under high glucose
T1 construct: Co-immunoprecipitation (Co-IP) of TXNIP with TRX in THP 1 monocytes cells treated with compounds under high glucose condition; endogenous in cells; host or cells: THP1 human monocytes cultured in 25 mM glucose
T1 sequence (Q9H3M7 1-391): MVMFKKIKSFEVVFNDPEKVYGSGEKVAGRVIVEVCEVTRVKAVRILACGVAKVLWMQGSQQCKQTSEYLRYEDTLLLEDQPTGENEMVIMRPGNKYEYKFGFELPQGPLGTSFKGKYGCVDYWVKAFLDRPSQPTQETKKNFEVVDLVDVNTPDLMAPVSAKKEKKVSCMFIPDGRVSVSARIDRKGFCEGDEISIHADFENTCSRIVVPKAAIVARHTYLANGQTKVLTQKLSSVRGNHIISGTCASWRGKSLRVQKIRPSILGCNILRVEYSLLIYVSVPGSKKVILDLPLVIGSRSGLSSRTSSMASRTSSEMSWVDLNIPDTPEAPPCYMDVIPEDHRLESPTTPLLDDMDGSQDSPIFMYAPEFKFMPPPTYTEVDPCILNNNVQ
Procedure: FIGS. 4A-4B. Co-IP with anti-TRX in THP 1 cells treated with compounds under high glucose condition. THP1 cells were treated by 10 uM compounds over night, then glucose was added up to 25 mM. The cells were cultured for 72-96 h. Cell extracts were prepared using cell extract buffer (Thermo Fisher Scientific) and Co-IP were performed with mouse anti-TRX (abcam).
Assay 1: Co-immunoprecipitation (Co-IP) of TXNIP with TRX in THP 1 monocytes cells treated with compounds under high glucose condition. In this assay, we looked for compounds that can interfere with the interaction between TXNIP and TRX in THP-1 monocytes treated with HG. So here compounds are added to cells in culture. […] So we picked the candidates only if the results are repeatable.
Co-IP with compounds treated THP1 under high glucose condition. THP1 cells were treated with compounds (2.5 uM) overnight and glucose was add to 25 mM and culture for 3-5 days, then coIP were carried using co-IP protocol.
1. Transfer the cultured cells from the culture dish to a 15-mL conical tube. 2. Centrifuge at 500×g for 2 min at 4° C. and remove the supernatant. 3. Wash with ice-cold PBS and centrifuge at 500×g for 2 min at 4° C. Remove the supernatant. 4. Repeat Step 3 twice.
5. Resuspend the cell pellet in ice-cold cell lysis buffer (1 mL per 1×10^7 cells) and incubate on ice for 10 min. 6. Sonicate cells in ice bath three times for 5 second pulses each. 7. Centrifuge at 13,000×g at 4° C. for 10 min, and transfer the supernatant to a fresh tube. Store the tube on ice for further use, or for long storage at −80° C.
8. Resuspend the magnetic beads by pipetting up and down for several times. 9. Transfer 20 μL of bead slurry to a fresh tube. Place the tube in a magnetic separation rack […]. Carefully remove the supernatant once the solution is clear. 10. […]
Note: Pre-clearing the lysate is recommended to reduce the non-specific binding. However, if the protein is detected by western blotting, pre-clearing may not be necessary unless a contaminating protein is interfering with visualization of the protein of interest. […]

[2] = test system: TXNIP mRNA; assay: TXNIP mRNA expression (RT-PCR) in murine RAW macrophages; details: RAW cells, 25 mM glucose, 72 h (FIG. 10A)
Procedure: FIGS. 10A-10B. FIG. 10A. […] RAW cells were cultured in 25 mM glucose with C1 (uM) for 72 h. Total RNA was prepared. RT-PCR was performed. Data shown are the mean+SEM from triplicates. Statistical analysis was performed for each column vs. high glucose (HG) DMSO using one-way ANOVA: *<0.0001. FIG. 10B. […] RAW cells were cultured in 25 mM glucose with C1 (uM) for 72 hours. Total RNA was prepared. RT-PCR was performed. Data shown are the mean+SEM from triplicates. Statistical analysis was performed for each column vs. HG DMSO using one-way ANOVA: *<0.0001.
RNA extraction and quantitative RT-PCR. RNA was extracted using the Direct-zol™ RNA MiniPrep Plus (Zymo Research). Reverse transcription of RNA samples into cDNA was performed using the GeneAmp RNA PCR Kit (Applied Biosystems), dNTP (from Roche Applied Science), Rnase inhibitor, MULV Reverse Transcriptase and Random hexamers reagent (all from Invitrogen). Diluted cDNA was quantified using real-time PCR performed with Power SYBR Green qPCR MasterMix (Applied Biosystem) and 7500 real-time PCR system (Applied Biosystems). The HPRT1 gene was used as an internal control.

[3] = Preliminary cell toxicity study in THP1 cells; details: human

With `CC(C)C(C(=O)O)N1C(=O)c2ccncc2C1=O` (stereo not shown) [Compound C1, 2-(1,3-dioxo-1,3-dihydro-2H-pyrrolo[3,4-c]pyridin-2-yl)-3-methylbutanoic acid] as the molecule, how does the “TXNIP association/interaction with TRX (co-IP, blot with TXNIP antibody)” value ([1]; THP1, 25 mM glucose, 5 uM C1, 16-72 h time course, nuclear cell extracts) read?
The value was “Inhibition of TXNIP-TRX interaction; also recorded: significantly reduced at 48 h”.

What about the “HG-induced TXNIP-TRX co-IP band intensity” value ([1]; THP1 cells, compounds added to cells in culture overnight, glucose to 25 mM, 72-96 h, anti-TRX IP) of the same molecule?
Its value is “inhibit high glucose-induced TXNIP-TRX co-immunoprecipitation; also recorded: reproducibly shows a reduction in the HG-induced band”.

What about the “TXNIP mRNA expression” value [2] of the same molecule?
Its value is “inhibits TXNIP mRNA expression; also recorded: inhibited TXNIP and TNF-α mRNA expression”.

What about the IC50 [3] of the same molecule?
The IC50 was 450 µM.
